According to patent publication US11648287B2, “Composition for the treatment of intracellular bacterial infection” (priority 2017, dated 2023):

Tests used:
[1] = tested on: intracellular S. epidermidis in Raw 264.7 cells; test: Intracellular antimicrobial activity assay; assay type: cell-based
Experimental: After culture S. epidermidis bacteria were pelleted, re-suspended in 1.5 ml of PBS mixed with 0.5 ml of human serum (H1 serum, Cat […], Bio Whittaker, The Netherlands) and incubated for 20 minutes for opsonization. The inoculum was adjusted to 1.8×10^8 CFU/ml with RPMI. Medium of cells was replaced by 40 μl of the bacterial inoculum (bacteria to cell ratio of 40:1) and phagocytosis was allowed to proceed for 45 minutes. […] Raw 264.7 cells were detached by incubation in 100 μl of RPMI containing 0.5 mM EDTA. Detached cells were transferred to a vial and lysed with 40 μl of 1% saponine by incubation in a waterbath sonicator for 5 minutes (Transsonic 460, Elma Schmldbaur GmbH, Germany). The sonicate was centrifuged, and the pelleted bacteria were washed repeatedly and re-suspended in PBS before quantitative culture of serial 10-fold dilutions. Intracellular surviving S. epidermidis in Raw 264.7 cells were expressed as numbers of CFU per well. […] After illumination, cells were incubated overnight, lysed before quantitative culture of surviving bacteria.

[2] = tested on: Raw 264.7 cells; test: Propidium iodide influx, loss of viability of Raw 264.7 cells; assay type: cell-based, mouse; conditions: TPPS2a 0.25 μg/ml + S. epidermidis (40:1); illuminated for 5 minutes
Experimental: Raw 264.7 cells were seeded in a 96-well plate (polystyrene Nunclon™ clear TC plate, flat bottom, Greiner, The Netherlands) at a concentration of 1×10^5 cells/well and incubated overnight in RPMI at 37° C. in a humidified atmosphere containing 5% CO2 (unless specified otherwise). The cells were subsequently incubated overnight in 200 μl of RPMI containing gentamicin (15.6 to 1000 μg/ml), or incubated for 2 hours in RPMI containing photosensitizer TPPS2a (0.1 to 0.4 μg/ml) (PCI Biotech AS, Norway) which was replaced with refresh RPMI in order to remove unbound TPPS2a before incubation of another 2 hours. Raw 264.7 cells incubated in RPMI all the time were used as controls. […] After illumination, cells were incubated in refresh RPMI for 24 hours. The effect of gentamicin and of TPPS2a on the metabolic activity of Raw 264.7 cells was tested using MTT at 24 hours after incubation or by WST-1 assay directly and at 24 hours after illumination, respectively, according to the manufacturer's instruction (Cell MTT or WST-1 assay kit, Sigma-Aldrich, The Netherlands). […] The influx of propidium iodide was measured to quantify the loss of cell viability directly or at 24 hours after illumination.

[3] = tested on: zebrafish embryos; test: Toxicity of vancomycin alone or combined with TPCS2a and illumination for non-infected zebrafish embryos; assay type: in vivo; conditions: vancomycin alone, 0.4 to 6.4 ng per non-infected embryo
Experimental: The toxicity of vancomycin (Vanco) alone or combined with TPCS2a and illumination (T) for non-infected zebrafish embryos was examined. Doses of vancomycin (0.4, 1.6 or 6.4 ng per 1 nl of PBS), or combined with 2.5*10^−3 ng TPCS2a per 1 nl of PBS, were injected per embryo. […] The initial group sizes were 27 to 29 embryos.

[4] = tested on: Staphylococcus aureus; conditions: vancomycin alone 0.4 ng; 4300 CFU/embryo
Experimental: To investigate whether PCI enhanced the antimicrobial efficacy of vancomycin against Staphylococcus aureus infection, S. aureus-infected zebrafish embryos were treated with vancomycin alone (0.4 ng) or combined with TPCS2a (2.5*10^−3 ng). PBS mock treatment was used as control. After injections, zebrafish embryos were maintained group-wise in petri-dishes containing E3 medium. The petri-dishes were placed on the Lumisource illumination device and embryos were illuminated for 10 minutes. Initial group sizes were 29 or 30 embryos. The difference between survival of the vancomycin alone group and the vancomycin-TPCS2a/illumination group was analyzed using Log-rank test, *p≤0.033.

[5] = tested on: zebrafish embryos; test: Toxicity test of gentamicin alone or combined with TPCS2a in zebrafish embryos; assay type: in vivo; conditions: for toxicity to zebrafish embryos (survival): graded doses injected per embryo; for maximal non-toxic concentrations: injection at 32 hpf, illumination 10 minutes, survival until 6 dpi
Experimental: (§1) Injection into the blood circulation of zebrafish embryos via either the blood island or the duct of Cuvier (Benard et al., 2012, Journal of visualized experiments: JoVE, 61) was performed following the injection procedure described earlier (Zhang et al., 2017, supra). The volume of liquid per injection was adjusted to 1 nl for all injections in the present study.
Toxicity test of gentamicin alone or combined with TPCS2a in zebrafish embryos Gentamicin or TPCS2a solution (both in PBS) or mixtures were injected into WT zebrafish embryos at 32 hours post fertilization (hpf). PBS was injected into control embryos. The embryos were protected from light using aluminium foil apart from illumination for 10 minutes using LumiSource, at 34 hpf. Survival of embryos (heartbeat, movement) was monitored daily until 6 dpi.

[6] = tested on: S. epidermidis strain O-47; test: MIC and MBC of gentamicin for S. epidermidis in RPMI; assay type: cell-based; conditions: S. epidermidis O-47; RPMI medium supplemented with 5% fetal calf serum
Excerpt: An “antibacterial agent” is an entity (e.g. a molecule) which has the ability to kill, damage or prevent the replication of selected bacteria under in vitro conditions, e.g. when in direct contact under culture conditions. The bacteria are preferably as described herein. (As referred to herein bacteria are referred to in both the singular and plural. In particular they are referred to in the singular when defining the type of bacteria to be targeted (i.e. the type, e.g. species, applicable to each bacterium) and in the plural when referring to the treatment to which they may be subjected (i.e. treatment of multiple microorganisms).) In particular, the antibacterial activity is assessed by determining the MIC or MBC value against one or more bacteria, e.g. against a Staphylococcus bacteria. Antibacterial activity may be determined by reference to the MIC value, minimum inhibition concentration (MIC), which is defined as the minimum concentration of an antimicrobial agent that inhibits visible growth of micro-organisms in specified liquid media after overnight incubation. Alternatively antibacterial activity may be determined by the minimum bactericidal concentration (MBC) which is the minimum concentration that kills 99.9% of the bacteria during this incubation period. […]

[7] = tested on: S aureus ATCC 49230; test: Treatment of S. aureus-infected zebrafish embryos with gentamicin alone or combined with TPCS2a; assay type: in vivo; conditions: 0.4, 0.1 or 0.05 ng gentamicin, without or with 2.5*10^−3 ng TPCS2a; illumination 10 minutes
Experimental: as §1
Wild type zebrafish embryos were intravenously injected with a suitable dose of S aureus ATCC 49230 via the blood island at 30 hpf, and randomly divided into groups for different treatments. At 32 hpf 1 nl of PBS solution containing gentamicin alone (0.05, 0.1 or 0.4 μg/ml) or combined with 0.25 μg/ml TPCS2a (to provide 2.5×10^−3 ng) was intravenously injected. Control embryos received PBS injections. The embryos were protected from light using aluminium foil apart from illumination of 10 minutes, at 34 hpf, and separately maintained in E3 medium, which was refreshed daily. Survival was monitored until 6 dpi.

[8] = tested on: Raw 264.7 cells; test: MTT metabolic activity of Raw 264.7 cells (gentamicin cytotoxicity); assay type: cell-based, mouse; conditions: after incubation of 24 hours
Experimental: Raw 264.7 cells were seeded in a 96-well plate (polystyrene Nunclon™ clear TC plate, flat bottom, Greiner, The Netherlands) at a concentration of 1×10^5 cells/well and incubated overnight in RPMI at 37° C. in a humidified atmosphere containing 5% CO2 (unless specified otherwise). The cells were subsequently incubated overnight in 200 μl of RPMI containing gentamicin (15.6 to 1000 μg/ml), or incubated for 2 hours in RPMI containing photosensitizer TPPS2a (0.1 to 0.4 μg/ml) (PCI Biotech AS, Norway) which was replaced with refresh RPMI in order to remove unbound TPPS2a before incubation of another 2 hours. Raw 264.7 cells incubated in RPMI all the time were used as controls. The cells were protected from light using aluminium foil apart from illumination of 15 minutes using LumiSource (PCI Biotech AS, Norway). After illumination, cells were incubated in refresh RPMI for 24 hours. The effect of gentamicin and of TPPS2a on the metabolic activity of Raw 264.7 cells was tested using MTT at 24 hours after incubation or by WST-1 assay directly and at 24 hours after illumination, respectively, according to the manufacturer's instruction (Cell MTT or WST-1 assay kit, Sigma-Aldrich, The Netherlands). […] The influx of propidium iodide was measured to quantify the loss of cell viability directly or at 24 hours after illumination.

O=S(=O)(O)c1ccc(-c2c3nc(c(-c4ccccc4)c4ccc([nH]4)c(-c4ccccc4)c4nc(c(-c5ccc(S(=O)(=O)O)cc5)c5ccc2[nH]5)C=C4)C=C3)cc1 [TPPS2a, tetraphenyl porphyrin disulphonate]
intracellular survival of S. epidermidis vs non-treated illuminated group ([1]; TPPS2a only 0.25 μg/ml, with illumination): did not affect intracellular survival of S. epidermidis
reduction of cell viability (influx of propidium iodide) [2]: not statistically different from the control group

CN[C@H](CC(C)C)C(=O)N[C@H]1C(=O)N[C@@H](CC(N)=O)C(=O)N[C@H]2C(=O)N[C@H]3C(=O)N[C@H](C(=O)N[C@H](C(=O)O)c4cc(O)cc(O)c4-c4cc3ccc4O)[C@H](O)c3ccc(c(Cl)c3)Oc3cc2cc(c3O[C@@H]2O[C@H](CO)[C@@H](O)[C@H](O)[C@H]2O[C@H]2C[C@](C)(N)[C@H](O)[C@H](C)O2)Oc2ccc(cc2Cl)[C@H]1O [vancomycin]
toxicity to zebrafish embryos [3]: dose-dependent toxicity
survival of S. aureus-infected embryos [4]: had no effect on the survival of the infected embryos

gentamicin
toxicity to zebrafish embryos (survival) [5]: dose-dependent toxicity
maximal non-toxic concentrations [5]: 2 ng/embryo
killing of intracellular S. epidermidis ([1]; gentamicin only 1, 10 or 30 μg/ml, regardless of time of illumination): did not kill intracellular S. epidermidis
effect of PCI on the efficacy of gentamicin ([1]; lowest dose of gentamicin, with PCI, in vitro): no effect of PCI
minimal bactericidal concentration [6]: 0.33 µg/mL
minimal inhibitory concentration [6]: 0.04 µg/mL
survival of S. aureus-infected embryos compared to PBS mock treatment [7]: significantly improved the survival
extracellular concentrations that did not reduce the metabolic activity of Raw 264.7 cells [8]: up to 250 μg/ml

tetraphenyl chlorin disulphonate [TPCS2a]
toxicity to zebrafish embryos (survival) [5]: dose-dependent toxicity
maximal non-toxic concentrations [5]: 2.5*10^−3 ng/embryo
